Test results reported in publication PMC10803289, “Transport and inhibition mechanism of the human SGLT2–MAP17 glucose transporter” (Nature Structural & Molecular Biology, 2023).
Substitutions are numbered along the chain they refer to. Several values for one entry are separate records, joined by “and”; a condition that tells them apart may be missing. Equal entries are not always repeated.

Columns and labels:
[1] = target: T1, wild-type hSGLT2 (membrane fraction of hSGLT2 and MAP17 expressing cells) (Homo sapiens, UniProt P31639); experiment: SGLT2 inhibitor-binding assay via affinity selection–mass spectrometry, crude membrane, WT
T1 construct: expressed in transfected cells; host or cells: Expi293 cells, crude membrane fraction
T1 sequence (P31639 1-672): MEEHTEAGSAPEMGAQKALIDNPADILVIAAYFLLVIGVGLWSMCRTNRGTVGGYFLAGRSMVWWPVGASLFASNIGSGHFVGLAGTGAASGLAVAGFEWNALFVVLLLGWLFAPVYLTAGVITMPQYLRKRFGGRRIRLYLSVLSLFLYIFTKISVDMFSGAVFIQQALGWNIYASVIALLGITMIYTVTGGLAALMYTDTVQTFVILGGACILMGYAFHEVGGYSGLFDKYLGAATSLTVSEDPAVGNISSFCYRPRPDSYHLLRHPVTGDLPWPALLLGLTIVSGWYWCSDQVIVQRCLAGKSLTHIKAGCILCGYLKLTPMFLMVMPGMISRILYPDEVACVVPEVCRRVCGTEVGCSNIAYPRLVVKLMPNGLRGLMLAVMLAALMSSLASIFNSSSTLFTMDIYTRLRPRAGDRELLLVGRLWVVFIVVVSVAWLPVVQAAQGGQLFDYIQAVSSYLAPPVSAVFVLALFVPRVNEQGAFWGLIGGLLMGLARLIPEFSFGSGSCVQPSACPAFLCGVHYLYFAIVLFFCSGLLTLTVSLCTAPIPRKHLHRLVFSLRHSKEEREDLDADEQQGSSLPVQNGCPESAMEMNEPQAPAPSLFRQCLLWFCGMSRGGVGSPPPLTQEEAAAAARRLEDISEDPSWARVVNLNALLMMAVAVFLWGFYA
T1 sequence (Q13113 1-114 partner): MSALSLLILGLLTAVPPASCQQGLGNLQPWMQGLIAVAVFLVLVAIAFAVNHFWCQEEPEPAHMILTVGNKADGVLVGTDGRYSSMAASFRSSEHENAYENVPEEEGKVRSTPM
Protocol: To examine the inhibition of binding to the crude membrane, mammalian Expi293 cells were co-transfected with the hMAP17 and hSGLT2 plasmids, as described. The cells were collected and disrupted by sonication in a hypotonic buffer (50 mM HEPES–NaOH (pH 7.5), 10 mM KCl and protease inhibitor cocktail) or Na^+-free hypotonic buffer (50 mM Tris–HCl (pH 7.5), 10 mM KCl and protease inhibitor cocktail). The cell debris were removed by centrifugation (2,000g, 5 min, 4 °C). The membrane fraction was collected by ultracentrifugation (112,000g, 30 min, 4 °C) and stored at −80 °C before use. The crude membrane (250 μg per sample) was incubated with SGLT2 inhibitor in an assay buffer (100 mM NaCl and 10 mM HEPES/Tris, pH 7.4) or Na^+-free assay buffer (100 mM choline chloride and 10 mM HEPES/Tris, pH 7.4) at room temperature for 2 h. Reactions were terminated by filtration through a GF/C filter plate (Corning) presoaked in assay buffer containing 0.1% bovine serum albumin. The sample in the filter plate was washed three times with the assay buffer and eluted with acetonitrile: water (80:20, v/v). The extract solution from the filter plate was diluted with water containing candesartan as an internal standard, and the SGLT2 inhibitor concentration was quantified via LC–MS/MS.
(§1) Nonspecific binding was measured using the crude membrane of nontransfected Expi293 cells. Specific binding was calculated by subtracting nonspecific binding from the binding of hSGLT2-expressing cells. Specific binding was normalized to hSGLT2 protein expression levels, measured via FSEC. The equilibrium dissociation constant (Kd) and maximum number of binding sites (Bmax) were calculated via nonlinear regression in GraphPad Prism 8.4.3. The specific binding of the hSGLT2 mutants was normalized to the Bmax of WT hSGLT2.
The concentrations of the extract solution from the filter plate and of the cell lysate were quantified using a tandem mass spectrometry QTRAP6500 System (SCIEX) coupled with an ACQUITY UPLC system (Waters) using the internal standard method. Mobile phases A and B used 10 mM of ammonium bicarbonate and acetonitrile, respectively.

[2] = target: T2, hSGLT2 D201A (Homo sapiens, UniProt P31639, D201A); experiment: SGLT2 inhibitor-binding assay (AS-MS), crude membrane, D201A mutant; design: expressed in transfected cells; host or cells: Expi293 cells, crude membrane fraction; conditions: 30 nM canagliflozin; D201A; replicates
T2 sequence (P31639 1-672 D201A): T1 sequence (P31639 1-672) with D201A
T2 sequence (Q13113 1-114 partner): T1 sequence (Q13113 1-114 partner)
Text: hSGLT2 complementary DNA and human MAP17 cDNA were synthesized and codon-optimized for expression in human cell lines. Both cDNAs were cloned into the pcDNA3.4 vector. The hSGLT2 sequence was fused with an N-terminal signal sequence from human trypsinogen 1, a His10 tag, and sfGFP, followed by a human rhinovirus 3C protease (HRV3C protease) recognition site. Point mutations were introduced into this construct using site-directed mutagenesis. These plasmids were utilized for all experimental procedures conducted in this study.
To examine the inhibition of binding to the crude membrane, mammalian Expi293 cells were co-transfected with the hMAP17 and hSGLT2 plasmids, as described. […] The extract solution from the filter plate was diluted with water containing candesartan as an internal standard, and the SGLT2 inhibitor concentration was quantified via LC–MS/MS.
as §1, with “The specific binding of the hSGLT2 mutants was normalized to the Bmax of WT hSGLT2.” left out

`Cc1ccc([C@@H]2O[C@H](CO)[C@@H](O)[C@H](O)[C@H]2O)cc1Cc1ccc(-c2ccc(F)cc2)s1` [Canagliflozin] was tested, and the “Canagliflozin binding (% of WT)” value ([1]; 30 nM canagliflozin, WT, replicates) was 95.0024 % of WT and 98.5721 % of WT and 106.426 % of WT, the “Canagliflozin binding (% of hSGLT2)” value ([1]; 30 nM canagliflozin, hSGLT2 membrane) was 85.124 % of hSGLT2 and 96.4187 % of hSGLT2 and 118.457 % of hSGLT2 and the Bmax ([1]; Na(+), mean ± SEM n=3) was 1.91 ± 0.16 pmol/mg-protein. The Kd ([1]; Na(+), mean ± SEM n=3) was 94 ± 21.8 nM, the Bmax ([1]; Na(-), mean ± SEM n=3) was 1.33 ± 0.12 pmol/mg-protein and the Kd ([1]; Na(-), mean ± SEM n=3) was 109 ± 25.4 nM. For the same molecule, the Canagliflozin binding ([1]; Sodium 0 mM, replicates) was 0.5239 pmol/mg-protein and 0.5745 pmol/mg-protein and 0.6364 pmol/mg-protein, the Canagliflozin binding ([1]; Sodium 1 mM, replicates) was 0.4659 pmol/mg-protein and 0.5424 pmol/mg-protein and 0.6685 pmol/mg-protein and the Canagliflozin binding ([1]; Sodium 10 mM, replicates) was 0.8906 pmol/mg-protein and 0.8030 pmol/mg-protein and 0.9338 pmol/mg-protein. The Canagliflozin binding ([1]; Sodium 100 mM, replicates) was 0.9992 pmol/mg-protein and 1.5850 pmol/mg-protein and 1.3270 pmol/mg-protein, the “Bmax in the absence versus the presence of Na+ (in words)” value ([1]; absence vs presence of Na+) was “partially lower” and the Kd ([1]; in the presence of sodium, rounded value quoted by the referee in peer review file) was about 100 nM. The “Canagliflozin binding (% of WT)” value [2] was 127.94 % of WT and 124.539 % of WT and 148.349 % of WT.
